# Reference: patent US7147866B2, “UV-absorbing lipid vesicles” (Galaxy Surfactants Limited, priority 2004, dated 2006)
# Key:
# [1] = test system: hairless skin of inner side of forearm; experiment: Photoprotection on human forearm skin exposed to midday sun; melanin content and erythema levels by Mexameter-18; type: in vivo; settings: liposomal vs non-vesicle aqueous suspension
# Description: Liposomal dispersion composition (200 mg of 5.0% dispersion) of p-methoxy cinnamidopropyldimethylbehenyl ammonium tosylate and a cream preparation containing octyl methoxy cinnamate (200 mg of cream containing 5% OMC) are applied on hairless skin of inner side of forearm (36 cm^2). The forearms are exposed to midday sun for 15 minutes. The melanin content and erythema levels have been measured by Mexameter-18 (Courage+Khazakha, gmbh, Germany) before and after the exposure.
# [2] = Molar extinction coefficient (UV absorption) in methanol; type: physicochemical; settings: at λmax 305 nm in methanol
# [3] = Vesicle formation and stability of aqueous dispersion; type: physicochemical
# Text: However, this short duration of stability of aqueous suspension is sufficient for conducting the photoprotection experiment.
Compound,Photoprotection efficacy compared with p-methoxy cinnamidopropyl dimethyllauryl ammonium tosylate suspension [1],"Molar extinction coefficient, ε [2]",Stability of dispersion in water ([3]; aqueous suspension),Vesicle formation ([3]; lipid by itself in water)
CCCCCCCCCCCCCCCCCCCCCC[N+](C)(C)CCCNC(=O)C=Cc1ccc(OC)cc1.Cc1ccc(S(=O)(=O)[O-])cc1 [p-methoxy cinnamidopropyldimethylbehenyl ammonium tosylate],much more superior in protecting skin,"23,000",,
CCCCCCCCCCCC[N+](C)(C)CCCNC(=O)C=Cc1ccc(OC)cc1.Cc1ccc(S(=O)(=O)[O-])cc1 [p-methoxy cinnamidopropyl dimethyllauryl ammonium tosylate],,,unstable dispersion in water,does not form vesicles
"CCCCCCCCCCCCCCCCCCCCCC[N+](C)(C)CCCNC(=O)c1ccc(N(C)C)cc1.Cc1ccc(S(=O)(=O)[O-])cc1 [p-N,N-dimethylamine benzamidopropyldimethylbehenyl ammonium tosylate]",,"22,200",,
